We go through four compounds from US4801606A (priority 1987, dated 1989).

Values after ≈ are worked out from the molar mass of the structure shown. Where two headings read alike, the source gives them in different places.

The test system of data set [1] is CV-1 cells.
The subject of data set [2] is Candida albicans. The data set is described as follows: microbe, parasite or virus in culture.
For data set [3] the following is noted: as described in British patent specification Nos. 1,078,049 and 932,875; cited from earlier work.

As for `C=C1CC(OC)(C(O)C(=O)NC2OCOC3C2OC(CC(O)CCC/C=C/C=C/C=C/C(=O)NC(CCCNC(=N)N)C(=O)O)C(C)(C)C3OC)OC(C)C1C` (stereo not shown) [Onnamide A (1), onnamide A], the “VSV CYT” value in data set [1] (0.2 ug/well), in data set [1] (2 ug/well) and in data set [1] (20 ug/well) was 0 LS throughout. In data set [2], this compound displayed an MIC of 50 µg/mL (≈ 63 µM).
For the compound `C=C1CC(OC)(C(O)C(=O)NC2OCOC3C2OC(CC(O)CCC/C=C/C=C/C=C/C(=O)NC(CCCNc2nc(C)cc(C)n2)C(=O)O)C(C)(C)C3OC)OC(C)C1C` (stereo not shown) [Pyrimidine derivative (3)], in data set [2], the MIC turned out to be 50 µg/mL (≈ 58.3 µM).
On to `C=C1CC(OC)(C(O)C(=O)NC(OC)C2CC(O)C(C)(C)C(CC(COC)OC)O2)OC(C)C1C` (stereo not shown) [Pederin], for which the antimitotic activity result in data set [3] is given as “antimitotic activity”.
`C=C1CC(OC)(C(O)C(=O)NC2OCOC3C2OC(CC(O)CCC/C=C/C=C/C=C/C(=O)NC(CCCNC(=N)N)C(=O)OC)C(C)(C)C3OC)OC(C)C1C` (stereo not shown) [Methyl ester (2), Methyl ester of onnamide A]: the MIC in data set [2] came to 5 µg/mL (≈ 6.19 µM).
